Assay results taken from US9428452B2, “Compounds” (Glaxo Group Limited, priority 2012, dated 2016).
Marks after values point to notes of the source that are not given here.

What was measured:
Assay type in all cases: cell-based
IL-17A mRNA expression = experiment: Ex-vivo human skin model, IL-17A mRNA expression; conditions: for Percentage of inhibition of IL-17A mRNA expression: Th17 cytokine cocktail 24 h, RT-PCR
IL-22 mRNA expression = experiment: Ex-vivo human skin model, IL-22 mRNA expression; conditions: for Percentage of inhibition of IL-22 mRNA expression: Th17 cytokine cocktail 24 h, RT-PCR
IL-17F mRNA expression = experiment: Ex-vivo human skin model, IL-17F mRNA expression; conditions: for Percentage of inhibition of IL-17F mRNA expression: Th17 cytokine cocktail 24 h, RT-PCR
[1] = four different donors, compound 10 μM

Q: How did the “Percentage of inhibition of IL-17A mRNA expression” value (IL-17A mRNA expression; Skin Donor 1, compound 10 μM) turn out when `CCc1ccc(N(CC(C)C)S(=O)(=O)c2ccc([C@@H](O)CN3CCOCC3)c(CO)c2)cc1` [Example E126, N-(4-ethylphenyl)-4-(1-hydroxy-2-morpholinoethyl)-3-(hydroxymethyl)-N-isobutylbenzenesulfonamide] was run?
A: Its value is 76% *.

Q: And the “Percentage of inhibition of IL-17A mRNA expression” value (IL-17A mRNA expression; Skin Donor 2, compound 10 μM)?
A: The value was 93% *.

Q: And the “Percentage of inhibition of IL-17A mRNA expression” value (IL-17A mRNA expression; Skin Donor 3, compound 10 μM)?
A: Its value is 60% *.

Q: What about the “Percentage of inhibition of IL-17A mRNA expression” value (IL-17A mRNA expression; Skin Donor 4, compound 10 μM) of the same compound?
A: The value was 85% *.

Q: And the “gene transcription of il17a (result in words)” value (IL-17A mRNA expression; [1])?
A: Its value is “inhibited”.

Q: What about the “Percentage of inhibition of IL-22 mRNA expression” value (IL-22 mRNA expression; Skin Donor 1, compound 10 μM) of the same compound?
A: Its value is 67% *.

Q: What about the “Percentage of inhibition of IL-22 mRNA expression” value (IL-22 mRNA expression; Skin Donor 2, compound 10 μM) of the same compound?
A: The value was 58%.

Q: And the “Percentage of inhibition of IL-22 mRNA expression” value (IL-22 mRNA expression; Skin Donor 3, compound 10 μM)?
A: The value was 60%.

Q: And the “Percentage of inhibition of IL-22 mRNA expression” value (IL-22 mRNA expression; Skin Donor 4, compound 10 μM)?
A: The value was 58% *.

Q: And the “gene transcription of il22 (result in words)” value (IL-22 mRNA expression; [1])?
A: Its value is “inhibited”.

Q: What about the “Percentage of inhibition of IL-17F mRNA expression” value (IL-17F mRNA expression; Skin Donor 1, compound 10 μM) of the same compound?
A: Its value is 67% *.

Q: What about the “Percentage of inhibition of IL-17F mRNA expression” value (IL-17F mRNA expression; Skin Donor 2, compound 10 μM) of the same compound?
A: The value was 89% *.

Q: What about the “Percentage of inhibition of IL-17F mRNA expression” value (IL-17F mRNA expression; Skin Donor 3, compound 10 μM) of the same compound?
A: The value was 67% *.

Q: What about the “Percentage of inhibition of IL-17F mRNA expression” value (IL-17F mRNA expression; Skin Donor 4, compound 10 μM) of the same compound?
A: Its value is 74% *.

Q: What about the “gene transcription of il17f (result in words)” value (IL-17F mRNA expression; [1]) of the same compound?
A: Its value is “inhibited”.
